Values quoted from earlier work as cited in US12171220B2, “High osmolarity antimicrobial composition containing one or more organic solvents” (Next Science IP Holdings Pty Ltd, priority 2013, dated 2024).

Conditions: alcohols, Table 2; room temperature
In the case of `CCC(CC)CO` [2-ethyl-1-butanol], the “~δp (MPa^1/2)” value is listed as ~4.3 MPa^1/2.
For `CCO` [ethanol], the “~δp (MPa^1/2)” value is given as ~8.8 MPa^1/2.
In the case of `C=CCO` [Example 2-propenol, 2-propenol], the “~δp (MPa^1/2)” value is given as ~10.8 MPa^1/2.
In the case of `OCC(Cl)CCl` (centres unmarked) [2,3-dichloropropanol], the “~δp (MPa^1/2)” value is given as ~9.2 MPa^1/2.
In the case of `CCCO` [Example 1-propanol, 1-propanol], the “~δp (MPa^1/2)” value is given as ~6.8 MPa^1/2.
In the case of `OC1C=CCC1` (centres unmarked) [2-cyclopentenyl alcohol], the “~δp (MPa^1/2)” value is listed as ~7.6 MPa^1/2.
In the case of `CCCCO` [Example 1-butanol, 1-butanol], the “~δp (MPa^1/2)” value is given as ~5.7 MPa^1/2.
For `OCc1ccc(Cl)cc1` [4-chlorobenzyl alcohol], the “~δp (MPa^1/2)” value is given as ~7.5 MPa^1/2.
For `CCCCCCCCCCO` [Example 1-decanol, 1-decanol], the “~δp (MPa^1/2)” value is given as ~10.0 MPa^1/2.
For `CC(C)CCCCCO` [isooctyl alcohol], the “~δp (MPa^1/2)” value is listed as ~7.3 MPa^1/2.
In the case of `CCCCCCCCO` [octanol], the “~δp (MPa^1/2)” value is given as ~3.3 MPa^1/2.
For `CCCCC(CC)CO` (centres unmarked) [2-ethyl-hexanol], the “~δp (MPa^1/2)” value is listed as ~3.3 MPa^1/2.
For `CCCCCO` [Example 1-pentanol, 1-pentanol], the “~δp (MPa^1/2)” value is listed as ~4.5 MPa^1/2.
For `CC(C)O` [Example 2-propanol, 2-propanol], the “~δp (MPa^1/2)” value is listed as ~6.1 MPa^1/2.
In the case of `CCCC(C)O` (centres unmarked) [Example 2-pentanol, 2-pentanol], the “~δp (MPa^1/2)” value is given as ~6.4 MPa^1/2.
For `CC(C)(C)O` [t-butyl alcohol], the “~δp (MPa^1/2)” value is given as ~5.1 MPa^1/2.
For `CO` [methanol], the “~δp (MPa^1/2)” value is listed as ~12.3 MPa^1/2.
In the case of `CCCCCCCCC(C)O` (centres unmarked) [Example 2-decanol, 2-decanol], the “~δp (MPa^1/2)” value is listed as ~10.0 MPa^1/2.
In the case of `CCCCCCCC/C=C\CCCCCCCCO` [oleyl alcohol], the “~δp (MPa^1/2)” value is listed as ~2.6 MPa^1/2.
In the case of `OC1CCCCC1` [cyclohexanol], the “~δp (MPa^1/2)” value is given as ~4.1 MPa^1/2.

Same assay, conditions: glycol ethers, Table 1; room temperature
In the case of `OCCOc1ccccc1` [ethylene glycol monophenyl ether], the “~δp (MPa^1/2)” value is given as ~5.7 MPa^1/2.
In the case of `CCCCOCCOCCO` [diethylene glycol mono-n-butyl ether], the “~δp (MPa^1/2)” value is given as ~7.0 MPa^1/2.
In the case of `COCC(C)O` (centres unmarked) [propylene glycol monomethyl ether], the “~δp (MPa^1/2)” value is given as ~6.3 MPa^1/2.
In the case of `CCCCOCCO` [ethylene glycol monobutyl ether], the “~δp (MPa^1/2)” value is listed as ~5.1 MPa^1/2.
For `CCCCCCCC/C=C\CCCCCCCCOCCOCCOCCO` [triethylene glycol monooleyl ether], the “~δp (MPa^1/2)” value is given as ~3.1 MPa^1/2.
For `COCCOCCO` [diethylene glycol monomethyl ether], the “~δp (MPa^1/2)” value is listed as ~7.8 MPa^1/2.
For `CC(O)COC(C)C` (centres unmarked) [propylene glycol monoisopropyl ether], the “~δp (MPa^1/2)” value is listed as ~6.1 MPa^1/2.
In the case of `OCCOCc1ccccc1` [ethylene glycol monobenzyl ether], the “~δp (MPa^1/2)” value is listed as ~5.9 MPa^1/2.
For `COCCO` [ethylene glycol monomethyl ether], the “~δp (MPa^1/2)” value is given as ~9.2 MPa^1/2.
In the case of `CCCOCC(C)O` (centres unmarked) [propylene glycol monopropyl ether], the “~δp (MPa^1/2)” value is given as ~5.6 MPa^1/2.
For `CCOCC(C)O` (centres unmarked) [propylene glycol monoethyl ether], the “~δp (MPa^1/2)” value is given as ~6.5 MPa^1/2.
In the case of `CC(C)COCC(C)O` (centres unmarked) [propylene glycol monoisobutyl ether], the “~δp (MPa^1/2)” value is given as ~4.7 MPa^1/2.
For `CCOCCO` [ethylene glycol monoethyl ether], the “~δp (MPa^1/2)” value is given as ~9.2 MPa^1/2.
In the case of `CCOCCOCCO` [diethylene glycol monoethyl ether], the “~δp (MPa^1/2)” value is given as ~9.2 MPa^1/2.
For `CCCOCCO` [ethylene glycol monopropyl ether], the “~δp (MPa^1/2)” value is listed as ~8.2 MPa^1/2.
In the case of `COCCOCCOCCO` [triethylene glycol monomethyl ether], the “~δp (MPa^1/2)” value is listed as ~7.6 MPa^1/2.
In the case of `CC(C)OCCO` [ethylene glycol monoisopropyl ether], the “~δp (MPa^1/2)” value is listed as ~8.2 MPa^1/2.
For `CCCCOCC(C)O` (centres unmarked) [propylene glycol monobutyl ether], the “~δp (MPa^1/2)” value is given as ~4.5 MPa^1/2.

Same assay, conditions: solvents added in Examples 65-80, text
For `CCOC(C)=O` [ethyl acetate], the δp is given as 5.3.
For `Clc1ccccc1` [chlorobenzene], the δp is given as 4.3.

Same assay, conditions: water
In the case of `O` [water], the δp is given as “≈ 16.0 MPa^1/2”.
